Test results reported in patent US5342843A, “Thienoimidazoppyridone derivatives” (Kyowa Hakko Kogyo Co., Ltd., priority 1991, dated 1994).

Tests used:
guinea pig trachea = assay: Passive Schultz-Dale reaction (relaxation of ovalbumin-induced contraction of passively sensitized trachea); parameters: species or system male Hartley guinea pigs; conditions: Cavia porcellus; concentration causing 50% relaxation; ovalbumin 1 μg/ml, cumulative addition; isolated trachea, 37° C.
Method: Rabbit anti-OA serum prepared in advance by the method of Kohda, et al. [Folia Pharmacol. Japan, Vol. 66, p. 237 (1970)], was intraperitoneally administered to male Hartley guinea pigs weighing 350-500 g for passive sensitization, and 24 hours later tracheas of the animals were removed, and used for the following test. The tracheas were cut into zig-zag strips by the method of Emmerson and Mackay [J. Pharm. Pharmacol., Vol. 31, p.798 (1979)], were suspended in Krebs-Hensleit solution at 37° C. under aeration of a gas mixture of 95% oxygen and 5% carbon dioxide, and equilibrated for about 1 hour. The antigen, ovalbumin, was added to a bath (final concentration; 1 μg/ml). The contraction was recorded using an isotonic transducers (TD-112S; Nihon Koden Kogyo Co.) connected to a recorder (TYPE 3066; Yokogawa Hokushin Electric). Following the contraction curves reached a plateau, a test compound was cumulatively added in order to calculate the concentration causing 50% relaxation (IC50) which was determined from least-squares regression analysis.

[1] = tested on: plaque-forming cells (PFC); assay: Inhibiting effect on plaque-forming cells (PFC); assay type: cell-based, Balb/c strain male mice; conditions: 120 h; concentration: 10^-5 M; mouse spleen cells, 5 days culture; read-out: PFC inhibition rate (%)
Excerpt: The method devised by Jerne, et al. [Science, Vol. 140, p.405 (1963)] was followed while referring to the method of Yamamoto, et al. [Drugs Exptl. Clin. Res., Vol. 8, p.5 (1982)]. That is, Balb/c strain male mice (7-week-old/SLC) were sensitized with 1×10^8 sheep erythrocytes (manufactured by Bio Test Research Institute), and the spleen was extirpated on the 6th or 7th day. The erythrocytes were removed using ACT solution [Tris (hydroxymethyl) aminomethane-NH4 Cl solution] from the spleen cells, and were washed with RPMI-1640 medium (manufactured by Nissui Seiyaku Co.) three times. Suspensions of the obtained cells (1×10^7) and the sheep erythrocytes (5×10^6) were suspended with RPMI-1640 medium containing the test compound, 2-mercaptoethanol (5×10^-5 M), 10% bovine fetal serum (manufactured by Gibco Co.), streptomycin and penicillin. The obtained cell suspension was distributed into a 24-well microculture plate, and cultured in a carbon dioxide gas incubator at 37° C. for 5 days.
After the completion of culturing, the cells were transferred to a plastic test tube. They are centrifuged at 2000 rpm and the supernatant was removed. Then, the cells were further suspended in 1 ml of RPMI-1640. The cell suspension was charged, together with the sheep erythrocytes and the guinea pig complements, into a Cunningham chamber (manufactured by Takahashi Giken Co.), by the method of Cunningham, et al. [Immunology, Vol. 14, p.599 (1968)]. The cells were incubated at 37° C. for 1-2 hours, and then a direct PFC count was determined.

SMILES: CCCCn1c(=O)c2[nH]cnc2c2sccc21 [Compound 1, 5-n-butylthieno[3,2-b]-3H-imidazo[4,5-d]pyridine-4(5H)-one]
- IC50 (guinea pig trachea): 4.63 µM
- inhibition at 10 µM [1]: 39.3%

SMILES: CCCCn1c(=O)c2c(ncn2C)c2sccc21 [Compound 2, 5-n-butyl-3-methylthieno[3,2-b]-3H-imidazo[4,5-d]pyridine-4(5H)-one]
- IC50 (guinea pig trachea): 12.2 µM
- inhibition at 10 µM [1]: 43.3%

SMILES: CCCCn1c(=O)c2c(ncn2Cc2ccccc2)c2sccc21 [Compound 3, 3-benzyl-5-n-butylthieno [3,2-b]-3H-imidazo [4,5-d]pyridine-4 (5H)-one]
- inhibition at 10 µM [1]: 92.4%

SMILES: CC(C)n1c(=O)c2[nH]cnc2c2sccc21 [Compound 6, 5-isopropylthieno [3,2-b]-3H-imidazo [4,5-d]pyridine-4 (5H)-one]
- IC50 (guinea pig trachea): 2.67 µM
- inhibition at 10 µM [1]: 8.8%

SMILES: CC(C)n1c(=O)c2c(ncn2C)c2sccc21 [Compound 7, 5-isopropyl-3-methylthieno[3,2-b]-3H-imidazo[4,5-d]pyridine-4(5H)-one]
- IC50 (guinea pig trachea): 3.53 µM
- inhibition at 10 µM [1]: 29.5%

SMILES: CC(C)n1c(=O)c2ncn(C)c2c2sccc21 [Compound 9, 5-isopropyl-1-methylthieno[3,2-b]-1H-imidazo[4,5-d]pyridine-4(5H)-one]
- IC50 (guinea pig trachea): 7.29 µM
- inhibition at 10 µM [1]: 23.8%

SMILES: CCCn1c(=O)c2[nH]cnc2c2sccc21 [Compound 11, 5-n-propylthieno [3,2-b]-3H-imidazo [4,5-d]pyridine-4(5H)-one]
- IC50 (guinea pig trachea): 0.922 µM

SMILES: CCCn1c(=O)c2c(ncn2C)c2sccc21 [Compound 12, 3-methyl-5-n-propylthieno [3,2-b]-3H-imidazo [4,5-d]pyridine-4(5H)-one]
- IC50 (guinea pig trachea): 2.95 µM
- inhibition at 10 µM [1]: 60.4%

SMILES: CCCn1c(=O)c2c(ncn2Cc2ccccc2)c2sccc21 [Compound 13, 3-benzyl-5-n-propylthieno [3,2-b]-3H-imidazo [4,5-d]pyridine-4(5H)-one]
- inhibition at 10 µM [1]: 68.3%

SMILES: CCCn1c(=O)c2ncn(C)c2c2sccc21 [Compound 14, 1-methyl-5-n-propylthieno [3,2-b]-1H-imidazo [4,5-d]pyridine-4 (5H)-one]
- IC50 (guinea pig trachea): 6.56 µM

SMILES: CCn1c(=O)c2[nH]cnc2c2sccc21 [Compound 16, 5-ethylthieno[3,2-b]-3H-imidazo[4,5-d]pyridine-4(5H)one]
- IC50 (guinea pig trachea): 0.657 µM
- inhibition at 10 µM [1]: 83.1%

SMILES: CCn1c(=O)c2c(ncn2C)c2sccc21 [Compound 17, 5-ethyl-3-methylthieno[3,2-b]-3H-imidazo[4,5-d]pyridine-4 (5H)-one]
- IC50 (guinea pig trachea): 10.5 µM
- inhibition at 10 µM [1]: 47%

SMILES: CCn1c(=O)c2ncn(C)c2c2sccc21 [Compound 19, 5-ethyl-1-methylthieno [3,2-b]-1H-imidazo [4,5-d]pyridine-4 (5H)-one]
- IC50 (guinea pig trachea): 9.98 µM

SMILES: CCn1c(=O)c2ncn(Cc3ccccc3)c2c2sccc21 [Compound 20, 1-benzyl-5-ethylthieno [3,2-b]-1H-imidazo [4,5-d]pyridine-4 (5H)-one]
- IC50 (guinea pig trachea): 3.41 µM

SMILES: CCCCn1c(=O)c2[nH]cnc2c2ccsc21 [Compound 31, 5-n-butylthieno [2,3-b]-3H-imidazo [4,5-d]pyridine-4 (5H) one]
- IC50 (guinea pig trachea): 0.416 µM
- inhibition at 10 µM [1]: -10.9%

SMILES: CCCCn1c(=O)c2c(ncn2C)c2ccsc21 [Compound 32, 5-n-butyl-3-methylthieno [2,3-b]-3H-imidazo [4,5-d]pyridine-4 (5H)-one]
- IC50 (guinea pig trachea): 0.854 µM
- inhibition at 10 µM [1]: 16.5%

SMILES: CCCCn1c(=O)c2c(ncn2Cc2ccccc2)c2ccsc21 [Compound 33, 3-benzyl-5-n-butylthieno [2,3-b]-3H-imidazo [4,5-d]pyridine-4 (5H)-one]
- IC50 (guinea pig trachea): 36.9 µM
- inhibition at 10 µM [1]: 94.8%

SMILES: CCCCn1c(=O)c2ncn(C)c2c2ccsc21 [Compound 34, 5-n-butyl-1-methylthieno [2,3-b]-1H-imidazo [4,5-d]pyridine-4 (5H)-one]
- IC50 (guinea pig trachea): 8.98 µM
- inhibition at 10 µM [1]: -16.5%

SMILES: CCCCn1c(=O)c2ncn(Cc3ccccc3)c2c2ccsc21 [Compound 35, 1-benzyl-5-n-butylthieno [2,3-b]-1H-imidazo [4,5-d]pyridine-4 (5H)-one]
- IC50 (guinea pig trachea): 6.06 µM
- inhibition at 10 µM [1]: -3.8%

SMILES: CCCn1c(=O)c2ncn(Cc3ccccc3)c2c2ccsc21 [Compound 39, 1-benzyl-5-n-propylthieno [2,3-b]-1H-imidazo [4,5-d]pyridine-4 (5H)-one]
- IC50 (guinea pig trachea): 2.39 µM
